Experiments:
Type in all cases: in vivo
[1] = system: velvetleaf (Abutilon theophrasti); assay: Test A postemergence, velvetleaf; details: 0 to 100 scale (0 no effect, 100 complete control)
Procedure, shortened: (§1)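 Visual injury rating, 0 = no effect to 100 = complete control, made roughly ten days after treatment by comparison with untreated controls. Preemergence: directed soil spray onto freshly planted loam/sand. Postemergence: foliar application at one- to two-leaf stage, 2–10 cm height.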

[2] = system: ducksalad (Heteranthera limosa); assay: Test B flooded paddy test, ducksalad; details: Flood, scale 0 to 100
Procedure, shortened: (§2)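 Step one: raise plants to 2 leaves. Step two: flood pots 3 cm over the soil and apply compound into the water, keeping this depth. Step three: after 13–15 greenhouse days, score visually versus controls, 0–100, where 100 means complete control.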

rice (Oryza sativa) = assay: Test B flooded paddy test, rice; details: Flood, scale 0 to 100
Procedure, shortened: as §2

[3] = system: barnyardgrass (Echinochloa crus-galli); assay: Test A postemergence, barnyardgrass; details: 0 to 100 scale (0 no effect, 100 complete control)
Procedure, shortened: as §1

corn (Zea mays) [4] = assay: Test A preemergence, corn; details: 0 to 100 scale (0 no effect, 100 complete control)
Procedure, shortened: as §1

[5] = system: velvetleaf (Abutilon theophrasti); assay: Test A preemergence, velvetleaf; details: 0 to 100 scale (0 no effect, 100 complete control)
Procedure, shortened: as §1

[6] = system: giant foxtail (Setaria faberi); assay: Test A postemergence, giant foxtail; details: 0 to 100 scale (0 no effect, 100 complete control)
Procedure, shortened: as §1

[7] = system: morningglory (Ipomoea spp.); assay: Test A preemergence, morningglory; details: 0 to 100 scale (0 no effect, 100 complete control)
Procedure, shortened: as §1

[8] = system: wheat (Triticum aestivum); assay: Test A preemergence, wheat; details: 0 to 100 scale (0 no effect, 100 complete control)
Procedure, shortened: as §1

[9] = system: barnyardgrass (Echinochloa crus-galli); assay: Test A preemergence, barnyardgrass; details: 0 to 100 scale (0 no effect, 100 complete control)
Procedure, shortened: as §1

corn (Zea mays) [10] = assay: Test A postemergence, corn; details: 0 to 100 scale (0 no effect, 100 complete control)
Procedure, shortened: as §1

[11] = system: large crabgrass (Digitaria sanguinalis); assay: Test A postemergence, large crabgrass; details: 0 to 100 scale (0 no effect, 100 complete control)
Procedure, shortened: as §1

[12] = system: morningglory (Ipomoea spp.); assay: Test A postemergence, morningglory; details: 0 to 100 scale (0 no effect, 100 complete control)
Procedure, shortened: as §1

[13] = system: giant foxtail (Setaria faberi); assay: Test A preemergence, giant foxtail; details: 0 to 100 scale (0 no effect, 100 complete control)
Procedure, shortened: as §1

[14] = system: pigweed (Amaranthus retroflexus); assay: Test A postemergence, pigweed; details: 0 to 100 scale (0 no effect, 100 complete control)
Procedure, shortened: as §1

[15] = system: large crabgrass (Digitaria sanguinalis); assay: Test A preemergence, large crabgrass; details: 0 to 100 scale (0 no effect, 100 complete control)
Procedure, shortened: as §1

[16] = system: wheat (Triticum aestivum); assay: Test A postemergence, wheat; details: 0 to 100 scale (0 no effect, 100 complete control)
Procedure, shortened: as §1

[17] = system: pigweed (Amaranthus retroflexus); assay: Test A preemergence, pigweed; details: 0 to 100 scale (0 no effect, 100 complete control)
Procedure, shortened: as §1

[18] = system: umbrella sedge (Cyperus difformis); assay: Test B flooded paddy test, umbrella sedge; details: Flood, scale 0 to 100
Procedure, shortened: as §2

[19] = system: barnyardgrass (Echinochloa crus-galli); assay: Test B flooded paddy test, barnyardgrass; details: Flood
Procedure, shortened: as §2

[20] = 250 g ai/ha, scale 0 to 100 (0 no effect, 100 complete control)

## Cn1c(=O)c(C[S+]([O-])C2=NOC(C)(C)C2)nc2ccccc21 (stereo not shown) [Compound 24]
[1]; 125 g ai/ha
  Plant response rating, Velvetleaf: 0
[1]; 500 g ai/ha
  Plant response rating, Velvetleaf: 0
[2]; 62 g ai/ha
  Plant response rating, Ducksalad: 0
[2]; 250 g ai/ha
  Plant response rating, Ducksalad: 30
Rice (Oryza sativa); 62 g ai/ha
  Plant response rating, Rice: 30
Rice (Oryza sativa); 250 g ai/ha
  Plant response rating, Rice: 30
[3]; 125 g ai/ha
  Plant response rating, Barnyardgrass: 0
[3]; 500 g ai/ha
  Plant response rating, Barnyardgrass: 0
Corn (Zea mays) [4]; 125 g ai/ha
  Plant response rating, Corn: 0
Corn (Zea mays) [4]; 500 g ai/ha
  Plant response rating, Corn: 0
[5]; 125 g ai/ha
  Plant response rating, Velvetleaf: 0
[5]; 500 g ai/ha
  Plant response rating, Velvetleaf: 0
[6]; 125 g ai/ha
  Plant response rating, Foxtail, Giant: 0
[6]; 500 g ai/ha
  Plant response rating, Foxtail, Giant: 0
[7]; 125 g ai/ha
  Plant response rating, Morningglory: 0
[7]; 500 g ai/ha
  Plant response rating, Morningglory: 0
[8]; 125 g ai/ha
  Plant response rating, Wheat: 0
[8]; 500 g ai/ha
  Plant response rating, Wheat: 0
[9]; 125 g ai/ha
  Plant response rating, Barnyardgrass: 0
[9]; 500 g ai/ha
  Plant response rating, Barnyardgrass: 0
Corn (Zea mays) [10]; 125 g ai/ha
  Plant response rating, Corn: 0
Corn (Zea mays) [10]; 500 g ai/ha
  Plant response rating, Corn: 0
[11]; 125 g ai/ha
  Plant response rating, Crabgrass, Large: 0
[11]; 500 g ai/ha
  Plant response rating, Crabgrass, Large: 0
[12]; 125 g ai/ha
  Plant response rating, Morningglory: 0
[12]; 500 g ai/ha
  Plant response rating, Morningglory: 0
[13]; 125 g ai/ha
  Plant response rating, Foxtail, Giant: 0
[13]; 500 g ai/ha
  Plant response rating, Foxtail, Giant: 0
[14]; 125 g ai/ha
  Plant response rating, Pigweed: 0
[14]; 500 g ai/ha
  Plant response rating, Pigweed: 0
[15]; 125 g ai/ha
  Plant response rating, Crabgrass, Large: 0
[15]; 500 g ai/ha
  Plant response rating, Crabgrass, Large: 0
[16]; 125 g ai/ha
  Plant response rating, Wheat: 0
[16]; 500 g ai/ha
  Plant response rating, Wheat: 0
[17]; 125 g ai/ha
  Plant response rating, Pigweed: 0
[17]; 500 g ai/ha
  Plant response rating, Pigweed: 0
[18]; 62 g ai/ha
  Plant response rating, Sedge, Umbrella: 20
[18]; 250 g ai/ha
  Plant response rating, Sedge, Umbrella: 30
[19]; 62 g ai/ha, scale 0 to 100
  Plant response rating, Barnyardgrass: 0
[19]; [20]
  Plant response rating, Barnyardgrass: 0

## CC1(C)CC([S+]([O-])Cc2c(C(F)(F)C(F)(F)F)nc3n(c2=O)CCC3)=NO1 (stereo not shown) [Compound 27]
[1]; 125 g ai/ha
  Plant response rating, Velvetleaf: 0
[1]; 500 g ai/ha
  Plant response rating, Velvetleaf: 40
[2]; 31 g ai/ha
  Plant response rating, Ducksalad: 0
[2]; 62 g ai/ha
  Plant response rating, Ducksalad: 0
[2]; 125 g ai/ha
  Plant response rating, Ducksalad: 0
[2]; 250 g ai/ha
  Plant response rating, Ducksalad: 0
Rice (Oryza sativa); 31 g ai/ha
  Plant response rating, Rice: 0
Rice (Oryza sativa); 62 g ai/ha
  Plant response rating, Rice: 0
Rice (Oryza sativa); 125 g ai/ha
  Plant response rating, Rice: 0
Rice (Oryza sativa); 250 g ai/ha
  Plant response rating, Rice: 0
[3]; 125 g ai/ha
  Plant response rating, Barnyardgrass: 40
[3]; 500 g ai/ha
  Plant response rating, Barnyardgrass: 70
Corn (Zea mays) [4]; 125 g ai/ha
  Plant response rating, Corn: 0
Corn (Zea mays) [4]; 500 g ai/ha
  Plant response rating, Corn: 0
[5]; 125 g ai/ha
  Plant response rating, Velvetleaf: 0
[5]; 500 g ai/ha
  Plant response rating, Velvetleaf: 60
[6]; 125 g ai/ha
  Plant response rating, Foxtail, Giant: 40
[6]; 500 g ai/ha
  Plant response rating, Foxtail, Giant: 70
[7]; 125 g ai/ha
  Plant response rating, Morningglory: 0
[7]; 500 g ai/ha
  Plant response rating, Morningglory: 0
[8]; 125 g ai/ha
  Plant response rating, Wheat: 0
[8]; 500 g ai/ha
  Plant response rating, Wheat: 50
[9]; 125 g ai/ha
  Plant response rating, Barnyardgrass: 50
[9]; 500 g ai/ha
  Plant response rating, Barnyardgrass: 90
Corn (Zea mays) [10]; 125 g ai/ha
  Plant response rating, Corn: 0
Corn (Zea mays) [10]; 500 g ai/ha
  Plant response rating, Corn: 0
[11]; 125 g ai/ha
  Plant response rating, Crabgrass, Large: 40
[11]; 500 g ai/ha
  Plant response rating, Crabgrass, Large: 80
[12]; 125 g ai/ha
  Plant response rating, Morningglory: 0
[12]; 500 g ai/ha
  Plant response rating, Morningglory: 40
[13]; 125 g ai/ha
  Plant response rating, Foxtail, Giant: 60
[13]; 500 g ai/ha
  Plant response rating, Foxtail, Giant: 90
[14]; 125 g ai/ha
  Plant response rating, Pigweed: 0
[14]; 500 g ai/ha
  Plant response rating, Pigweed: 30
[15]; 125 g ai/ha
  Plant response rating, Crabgrass, Large: 70
[15]; 500 g ai/ha
  Plant response rating, Crabgrass, Large: 90
[16]; 125 g ai/ha
  Plant response rating, Wheat: 0
[16]; 500 g ai/ha
  Plant response rating, Wheat: 50
[17]; 125 g ai/ha
  Plant response rating, Pigweed: 0
[17]; 500 g ai/ha
  Plant response rating, Pigweed: 0
[18]; 31 g ai/ha
  Plant response rating, Sedge, Umbrella: 0
[18]; 62 g ai/ha
  Plant response rating, Sedge, Umbrella: 0
[18]; 125 g ai/ha
  Plant response rating, Sedge, Umbrella: 0
[18]; 250 g ai/ha
  Plant response rating, Sedge, Umbrella: 0
[19]; 31 g ai/ha, scale 0 to 100
  Plant response rating, Barnyardgrass: 0
[19]; 62 g ai/ha, scale 0 to 100
  Plant response rating, Barnyardgrass: 0
[19]; 125 g ai/ha, scale 0 to 100
  Plant response rating, Barnyardgrass: 0
[19]; [20]
  Plant response rating, Barnyardgrass: 0

Source: patent US20100099561A1, “HETEROBICYCLIC ALKYLTHIO-BRIDGED ISOXAZOLINES” (E.I. DU PONT DE NEMOURS AND COMPANY, priority 2008, published 2010)
